# From US9598420B2, “Benzodiazepine bromodomain inhibitor” (GlaxoSmithKline LLC, priority 2009, dated 2017)
# Assays:
# [1] = test system: LPS induced IL-6 secretion from whole blood; assay: Measurement of LPS Induced IL-6 Secretion from Whole Blood; type: cell-based; conditions: LPS 200 ng/ml, 24 hours, immunoassay, read-out: pIC50 (IL-6 levels) (converted)
# Description: Activation of monocytic cells by agonists of toll-like receptors such as bacterial lipopolysaccharide (LPS) results in production of key inflammatory mediators including IL-6. Such pathways are widely considered to be central to the pathophysiology of a range of auto-immune and inflammatory disorders.
# After further incubation for 24 hours at 37 degrees, 140 ul of PBS are added to each well. The plates are sealed, shaken for 10 minutes and then centrifuged (2500 rpm×10 min). 100 ul of the supernatant are removed and IL-6 levels assayed by immunoassay (typically by MesoScale Discovery technology) either immediately or following storage at −20 degrees.
Structure (SMILES),IC50 [1],melting point
"COc1ccc2c(c1)C(c1ccc(Cl)cc1)=N[C@@H](CC(=O)Nc1ccccc1F)c1nnc(C)n1-2 [Example 9, 2-[(4S)-6-(4-chlorophenyl)-1-methyl-8-(methyloxy)-4H-[1,2,4]triazolo[4,3-a][1,4]benzodiazepin-4-yl]-N-(2-fluorophenyl)acetamide]",≤ 10 µM,264 °C
"COc1ccc2c(c1)C(c1ccc(Cl)cc1)=N[C@@H](CC(=O)Nc1ccncc1)c1nnc(C)n1-2 [Example 14, 2-[(4S)-6-(4-chlorophenyl)-1-methyl-8-(methyloxy)-4H-[1,2,4]triazolo[4,3-a][1,4]benzodiazepin-4-yl]-N-4-pyridinylacetamide]",,223 °C
Cc1nnc2n1-c1ccc(O)cc1C(c1ccc(Cl)cc1)=N[C@H]2CC(=O)Nc1ccc(F)cc1,,222 °C (dec.)
"COc1ccc2c(c1)C(c1ccc(Cl)cc1)=N[C@@H](CC(=O)Nc1cccc(F)c1)c1nnc(C)n1-2 [Example 10, 2-[(4S)-6-(4-chlorophenyl)-1-methyl-8-(methyloxy)-4H-[1,2,4]triazolo[4,3-a][1,4]benzodiazepin-4-yl]-N-(3-fluorophenyl)acetamide]",≤ 10 µM,248 °C
"COc1ccc2c(c1)C(c1ccc(Cl)cc1)=N[C@@H](CC(=O)Nc1nccs1)c1nnc(C)n1-2 [Example 15, 2-[(4S)-6-(4-chlorophenyl)-1-methyl-8-(methyloxy)-4H-[1,2,4]triazolo[4,3-a][1,4]benzodiazepin-4-yl]-N-1,3-thiazol-2-ylacetamide]",≤ 10 µM,249 °C
COc1ccc2c(c1)C(c1ccc(Cl)cc1)=N[C@@H](CC(=O)NC1CCCCC1)c1nnc(C)n1-2 (stereo in doubt),,> 260 °C
